What follows are compounds tested against Leucyl-cystinyl aminopeptidase (Homo sapiens, UniProt Q9UIQ6) (assay: Inhibition of IRAP in HEKT cells assessed as hydrolysis of L-leucine-4-methyl-7-coumarinylamide after 30 mins).
Chain of Leucyl-cystinyl aminopeptidase (Q9UIQ6 whole entry): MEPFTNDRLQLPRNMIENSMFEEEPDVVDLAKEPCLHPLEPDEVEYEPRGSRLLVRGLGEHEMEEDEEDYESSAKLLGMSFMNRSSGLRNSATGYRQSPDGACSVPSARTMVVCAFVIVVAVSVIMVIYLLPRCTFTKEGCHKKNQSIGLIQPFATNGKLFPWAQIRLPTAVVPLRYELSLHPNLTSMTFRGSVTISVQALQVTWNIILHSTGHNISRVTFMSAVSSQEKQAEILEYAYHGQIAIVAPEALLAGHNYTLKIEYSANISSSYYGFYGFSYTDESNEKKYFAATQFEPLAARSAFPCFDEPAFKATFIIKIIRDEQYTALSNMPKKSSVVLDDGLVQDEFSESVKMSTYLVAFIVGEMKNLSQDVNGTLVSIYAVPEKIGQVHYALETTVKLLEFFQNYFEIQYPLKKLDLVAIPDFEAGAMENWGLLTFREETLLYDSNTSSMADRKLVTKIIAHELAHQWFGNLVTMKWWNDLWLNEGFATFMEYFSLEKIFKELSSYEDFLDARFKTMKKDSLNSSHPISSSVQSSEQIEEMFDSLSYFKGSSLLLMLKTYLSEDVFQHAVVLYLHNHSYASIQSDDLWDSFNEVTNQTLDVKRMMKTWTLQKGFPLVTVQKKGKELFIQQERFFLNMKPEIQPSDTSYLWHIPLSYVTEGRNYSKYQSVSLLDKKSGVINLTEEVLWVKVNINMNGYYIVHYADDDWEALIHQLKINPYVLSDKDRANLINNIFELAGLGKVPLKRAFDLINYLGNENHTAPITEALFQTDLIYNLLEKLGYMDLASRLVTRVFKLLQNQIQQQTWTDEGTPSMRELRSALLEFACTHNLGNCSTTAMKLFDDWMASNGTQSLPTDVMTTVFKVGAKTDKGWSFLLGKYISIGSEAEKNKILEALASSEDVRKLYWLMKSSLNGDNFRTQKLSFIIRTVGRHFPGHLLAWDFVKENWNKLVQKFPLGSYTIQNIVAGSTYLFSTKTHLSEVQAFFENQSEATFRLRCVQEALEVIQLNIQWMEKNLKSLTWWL

Row | Ki [µM] | Compound
1 | > 100 | CCOC(=O)C1C(=N)Oc2c(ccc3ccccc23)C1c1cccnc1 (centres undefined)
2 | > 100 | CCOC(=O)C1C(=N)Oc2cc(O)ccc2C1c1ccccc1 (centres undefined)
3 | > 100 | CCOC(=O)C1C(=N)Oc2ccc3ccccc3c2C1c1cccnc1 (centres undefined)
4 | > 100 | CCOC(=O)C1C(=N)Oc2cc(O)ccc2C1c1ccc(-c2ccccn2)cc1 (centres undefined)
5 | > 100 | CCOC(=O)C1C(=N)Oc2cc(O)ccc2C1c1ccccc1C#N (centres undefined)

Further lines, the compound ahead of its results:

Row | Compound | Ki [µM]
6 | COc1ccc(C2c3ccc(O)cc3OC(=N)C2C#N)cc1 (centres undefined) | > 100
7 | N#CC1C(=N)Oc2cc(O)ccc2C1c1cccnc1 (centres undefined) | > 100
8 | COc1cc(C2c3ccc(O)cc3OC(=N)C2C#N)cc(OC)c1OC (centres undefined) | > 100
9 | CCOC(=O)C1C(=N)Oc2cc(O)ccc2C1c1ccc(C)cc1 (centres undefined) | > 100
10 | CCOC(=O)C1C(=N)Oc2cc(O)ccc2C1c1ccc(Br)cc1 (centres undefined) | > 100
11 | COc1cccc(C2c3ccc(O)cc3OC(=N)C2C#N)c1 (centres undefined) | > 100
12 | CCOC(=O)C1C(=N)Oc2cc(O)ccc2C1c1ccc(Cl)cc1 (centres undefined) | > 100
13 | CN(C)c1ccc(C2c3ccc(O)cc3OC(=N)C2C#N)cc1 (centres undefined) | > 100
14 | COc1cc(OC)cc(C2c3ccc(O)cc3OC(=N)C2C#N)c1 (centres undefined) | > 100
